{
  "source": "the supplement of paper PMC10307832",
  "experiment_in_all_cases": "relative viability (nuclei count vs DMSO), 5 days (fraction); higher = more cells survive",
  "key": {"[1]": {"compound": "CC1=CC(=CC=C1)NC2=NC(=CS2)C3=CC=NC=C3 + CS(=O)(=O)CCNCc1ccc(-c2ccc3ncnc(Nc4ccc(OCc5cccc(F)c5)c(Cl)c4)c3c2)o1 [Lapatinib] (partner 2 µM)", "procedure,_shortened": "(§1)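 Nuclei were stained with Hoechst during a one-step fixation (final 0.05% Triton X-100, 1% formaldehyde, 1 ug/ml Hoechst) carried out 5 days after dosing, then counted on 4× images. The cells, lung cancer lines in 1536-well plates, had been dosed by pin tool the day after seeding with one drug alone or a fixed anchor-drug dose plus five library-drug doses (not always all listed) in √10 steps. Relative viability is the nuclei count in treated wells divided by that in vehicle wells, and each value is the median of duplicate plates.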"}, "Masitinib + Lapatinib": {"compound": "Cc1ccc(NC(=O)c2ccc(CN3CCN(C)CC3)cc2)cc1Nc1nc(-c2cccnc2)cs1 [Masitinib] + CS(=O)(=O)CCNCc1ccc(-c2ccc3ncnc(Nc4ccc(OCc5cccc(F)c5)c(Cl)c4)c3c2)o1 [Lapatinib] (partner 2 µM)", "procedure,_shortened": "as §1"}, "[2]": {"compound": "CC1=CC(=CC=C1)NC2=NC(=CS2)C3=CC=NC=C3 + CS(=O)(=O)N1CCN(Cc2cc3nc(-c4cccc5[nH]ncc45)nc(N4CCOCC4)c3s2)CC1 [Pictilisib] (partner 1 µM)", "procedure,_shortened": "as §1"}, "Masitinib + Alpelisib": {"compound": "Cc1ccc(NC(=O)c2ccc(CN3CCN(C)CC3)cc2)cc1Nc1nc(-c2cccnc2)cs1 [Masitinib] + Cc1nc(NC(=O)N2CCC[C@H]2C(N)=O)sc1-c1ccnc(C(C)(C)C(F)(F)F)c1 [Alpelisib] (partner 2 µM)", "procedure,_shortened": "as §1"}},
  "data": [
    {"cell line": "NCI-H1650", "values": [
      {"measurement": "relative viability", "setting": "[1]; first compound 0.08 µM", "value": 0.801},
      {"measurement": "relative viability", "setting": "[1]; first compound 0.253 µM", "value": 0.735},
      {"measurement": "relative viability", "setting": "[1]; first compound 0.8 µM", "value": 0.753},
      {"measurement": "relative viability", "setting": "[1]; first compound 2.53 µM", "value": 0.445},
      {"measurement": "relative viability", "setting": "[1]; first compound 8 µM", "value": 0.176},
      {"measurement": "relative viability", "setting": "Masitinib + Lapatinib; first compound 0.01 µM", "value": 0.607},
      {"measurement": "relative viability", "setting": "Masitinib + Lapatinib; first compound 0.03162 µM", "value": 0.761},
      {"measurement": "relative viability", "setting": "Masitinib + Lapatinib; first compound 0.1 µM", "value": 0.746},
      {"measurement": "relative viability", "setting": "Masitinib + Lapatinib; first compound 0.3162 µM", "value": 0.774},
      {"measurement": "relative viability", "setting": "Masitinib + Lapatinib; first compound 1 µM", "value": 0.612},
      {"measurement": "relative viability", "setting": "[2]; first compound 0.08 µM", "value": 0.536},
      {"measurement": "relative viability", "setting": "[2]; first compound 0.253 µM", "value": 0.517},
      {"measurement": "relative viability", "setting": "[2]; first compound 0.8 µM", "value": 0.621},
      {"measurement": "relative viability", "setting": "[2]; first compound 2.53 µM", "value": 0.419},
      {"measurement": "relative viability", "setting": "[2]; first compound 8 µM", "value": 0.208}
    ]},
    {"cell line": "HCC-15", "values": [
      {"measurement": "relative viability", "setting": "Masitinib + Alpelisib; first compound 0.01 µM", "value": 0.8},
      {"measurement": "relative viability", "setting": "Masitinib + Alpelisib; first compound 0.03162 µM", "value": 0.873},
      {"measurement": "relative viability", "setting": "Masitinib + Alpelisib; first compound 0.1 µM", "value": 0.976},
      {"measurement": "relative viability", "setting": "Masitinib + Alpelisib; first compound 0.3162 µM", "value": 0.85},
      {"measurement": "relative viability", "setting": "Masitinib + Alpelisib; first compound 1 µM", "value": 0.916},
      {"measurement": "relative viability", "setting": "[1]; first compound 0.08 µM", "value": 0.809},
      {"measurement": "relative viability", "setting": "[1]; first compound 0.253 µM", "value": 0.841},
      {"measurement": "relative viability", "setting": "[1]; first compound 0.8 µM", "value": 0.848},
      {"measurement": "relative viability", "setting": "[1]; first compound 2.53 µM", "value": 0.845},
      {"measurement": "relative viability", "setting": "[1]; first compound 8 µM", "value": 0.739},
      {"measurement": "relative viability", "setting": "Masitinib + Lapatinib; first compound 0.01 µM", "value": 0.561},
      {"measurement": "relative viability", "setting": "Masitinib + Lapatinib; first compound 0.03162 µM", "value": 0.919},
      {"measurement": "relative viability", "setting": "Masitinib + Lapatinib; first compound 0.1 µM", "value": 0.677},
      {"measurement": "relative viability", "setting": "Masitinib + Lapatinib; first compound 0.3162 µM", "value": 0.917},
      {"measurement": "relative viability", "setting": "Masitinib + Lapatinib; first compound 1 µM", "value": 0.852},
      {"measurement": "relative viability", "setting": "[2]; first compound 0.08 µM", "value": 0.644},
      {"measurement": "relative viability", "setting": "[2]; first compound 0.253 µM", "value": 0.665},
      {"measurement": "relative viability", "setting": "[2]; first compound 0.8 µM", "value": 0.684},
      {"measurement": "relative viability", "setting": "[2]; first compound 2.53 µM", "value": 0.692},
      {"measurement": "relative viability", "setting": "[2]; first compound 8 µM", "value": 0.701}
    ]},
    {"cell line": "EKVX", "values": [
      {"measurement": "relative viability", "setting": "Masitinib + Alpelisib; first compound 0.03162 µM", "value": 0.779},
      {"measurement": "relative viability", "setting": "Masitinib + Alpelisib; first compound 0.1 µM", "value": 0.786},
      {"measurement": "relative viability", "setting": "Masitinib + Alpelisib; first compound 0.3162 µM", "value": 0.706},
      {"measurement": "relative viability", "setting": "Masitinib + Alpelisib; first compound 1 µM", "value": 0.944},
      {"measurement": "relative viability", "setting": "[1]; first compound 0.08 µM", "value": 0.182},
      {"measurement": "relative viability", "setting": "[1]; first compound 0.253 µM", "value": 0.189},
      {"measurement": "relative viability", "setting": "[1]; first compound 0.8 µM", "value": 0.206},
      {"measurement": "relative viability", "setting": "[1]; first compound 2.53 µM", "value": 0.163},
      {"measurement": "relative viability", "setting": "[1]; first compound 8 µM", "value": 0.171},
      {"measurement": "relative viability", "setting": "Masitinib + Lapatinib; first compound 0.03162 µM", "value": 0.165},
      {"measurement": "relative viability", "setting": "Masitinib + Lapatinib; first compound 0.1 µM", "value": 0.198},
      {"measurement": "relative viability", "setting": "Masitinib + Lapatinib; first compound 0.3162 µM", "value": 0.158},
      {"measurement": "relative viability", "setting": "Masitinib + Lapatinib; first compound 1 µM", "value": 0.196},
      {"measurement": "relative viability", "setting": "[2]; first compound 0.08 µM", "value": 0.374},
      {"measurement": "relative viability", "setting": "[2]; first compound 0.253 µM", "value": 0.391},
      {"measurement": "relative viability", "setting": "[2]; first compound 0.8 µM", "value": 0.344},
      {"measurement": "relative viability", "setting": "[2]; first compound 2.53 µM", "value": 0.32},
      {"measurement": "relative viability", "setting": "[2]; first compound 8 µM", "value": 0.346}
    ]},
    {"cell line": "NCI-H2126", "values": [
      {"measurement": "relative viability", "setting": "Masitinib + Alpelisib; first compound 0.01 µM", "value": 0.802},
      {"measurement": "relative viability", "setting": "Masitinib + Alpelisib; first compound 0.03162 µM", "value": 0.766},
      {"measurement": "relative viability", "setting": "Masitinib + Alpelisib; first compound 0.1 µM", "value": 0.832},
      {"measurement": "relative viability", "setting": "Masitinib + Alpelisib; first compound 0.3162 µM", "value": 0.661},
      {"measurement": "relative viability", "setting": "Masitinib + Alpelisib; first compound 1 µM", "value": 0.712},
      {"measurement": "relative viability", "setting": "[1]; first compound 0.08 µM", "value": 0.593},
      {"measurement": "relative viability", "setting": "[1]; first compound 0.253 µM", "value": 0.667},
      {"measurement": "relative viability", "setting": "[1]; first compound 0.8 µM", "value": 0.68},
      {"measurement": "relative viability", "setting": "[1]; first compound 2.53 µM", "value": 0.594},
      {"measurement": "relative viability", "setting": "[1]; first compound 8 µM", "value": 0.572},
      {"measurement": "relative viability", "setting": "Masitinib + Lapatinib; first compound 0.01 µM", "value": 0.773},
      {"measurement": "relative viability", "setting": "Masitinib + Lapatinib; first compound 0.03162 µM", "value": 0.724},
      {"measurement": "relative viability", "setting": "Masitinib + Lapatinib; first compound 0.1 µM", "value": 0.734},
      {"measurement": "relative viability", "setting": "Masitinib + Lapatinib; first compound 0.3162 µM", "value": 0.662},
      {"measurement": "relative viability", "setting": "Masitinib + Lapatinib; first compound 1 µM", "value": 0.769},
      {"measurement": "relative viability", "setting": "[2]; first compound 0.08 µM", "value": 0.416},
      {"measurement": "relative viability", "setting": "[2]; first compound 0.253 µM", "value": 0.443},
      {"measurement": "relative viability", "setting": "[2]; first compound 0.8 µM", "value": 0.449},
      {"measurement": "relative viability", "setting": "[2]; first compound 2.53 µM", "value": 0.425},
      {"measurement": "relative viability", "setting": "[2]; first compound 8 µM", "value": 0.436}
    ]},
    {"cell line": "LK-2", "values": [
      {"measurement": "relative viability", "setting": "Masitinib + Alpelisib; first compound 0.01 µM", "value": 1.28},
      {"measurement": "relative viability", "setting": "Masitinib + Alpelisib; first compound 0.03162 µM", "value": 0.609},
      {"measurement": "relative viability", "setting": "Masitinib + Alpelisib; first compound 0.1 µM", "value": 1.38},
      {"measurement": "relative viability", "setting": "Masitinib + Alpelisib; first compound 0.3162 µM", "value": 1.15},
      {"measurement": "relative viability", "setting": "Masitinib + Alpelisib; first compound 1 µM", "value": 1.3},
      {"measurement": "relative viability", "setting": "[1]; first compound 0.08 µM", "value": 0.784},
      {"measurement": "relative viability", "setting": "[1]; first compound 0.253 µM", "value": 0.903},
      {"measurement": "relative viability", "setting": "[1]; first compound 0.8 µM", "value": 1.09},
      {"measurement": "relative viability", "setting": "[1]; first compound 8 µM", "value": 1.33},
      {"measurement": "relative viability", "setting": "Masitinib + Lapatinib; first compound 0.01 µM", "value": 1.06},
      {"measurement": "relative viability", "setting": "Masitinib + Lapatinib; first compound 0.03162 µM", "value": 0.836},
      {"measurement": "relative viability", "setting": "Masitinib + Lapatinib; first compound 0.1 µM", "value": 1.12},
      {"measurement": "relative viability", "setting": "Masitinib + Lapatinib; first compound 0.3162 µM", "value": 1.06},
      {"measurement": "relative viability", "setting": "Masitinib + Lapatinib; first compound 1 µM", "value": 0.941},
      {"measurement": "relative viability", "setting": "[2]; first compound 0.08 µM", "value": 0.572},
      {"measurement": "relative viability", "setting": "[2]; first compound 0.253 µM", "value": 0.569},
      {"measurement": "relative viability", "setting": "[2]; first compound 0.8 µM", "value": 0.853},
      {"measurement": "relative viability", "setting": "[2]; first compound 8 µM", "value": 0.674}
    ]}
  ]
}
